Experimental data published in ChEMBL document CHEMBL2429763, “Nonbenzamidine acylsulfonamide tissue factor-factor VIIa inhibitors” (Bioorg Med Chem Lett, 2013).
The source made the active and inactive calls. The calls are words filed in the database; no cut-off is given here.

Experiments:
[1] = biological target: Coagulation factor VII/tissue factor (Homo sapiens, UniProt P08709); test: Inhibition of human recombinant soluble tissue factor-factor 7a using H-D-Ile-Pro-Arg-pNA as substrate; assay type: protein-complex assay
Coagulation factor VII/tissue factor, sequence (P08709 61-212 limits assumed): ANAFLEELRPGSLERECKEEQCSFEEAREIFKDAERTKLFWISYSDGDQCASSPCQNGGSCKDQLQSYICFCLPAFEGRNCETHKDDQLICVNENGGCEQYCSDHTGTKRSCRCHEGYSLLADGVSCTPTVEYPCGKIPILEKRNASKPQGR
Coagulation factor VII/tissue factor, sequence (P08709 213-466 limits assumed): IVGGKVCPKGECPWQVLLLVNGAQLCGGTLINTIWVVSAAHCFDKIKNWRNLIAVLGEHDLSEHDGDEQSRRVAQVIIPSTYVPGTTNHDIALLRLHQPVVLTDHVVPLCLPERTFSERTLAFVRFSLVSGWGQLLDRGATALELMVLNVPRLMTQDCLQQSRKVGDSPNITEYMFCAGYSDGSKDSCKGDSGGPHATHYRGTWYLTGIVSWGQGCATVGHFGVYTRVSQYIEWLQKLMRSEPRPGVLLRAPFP
Coagulation factor VII/tissue factor, sequence (P13726 33-295 partner limits assumed): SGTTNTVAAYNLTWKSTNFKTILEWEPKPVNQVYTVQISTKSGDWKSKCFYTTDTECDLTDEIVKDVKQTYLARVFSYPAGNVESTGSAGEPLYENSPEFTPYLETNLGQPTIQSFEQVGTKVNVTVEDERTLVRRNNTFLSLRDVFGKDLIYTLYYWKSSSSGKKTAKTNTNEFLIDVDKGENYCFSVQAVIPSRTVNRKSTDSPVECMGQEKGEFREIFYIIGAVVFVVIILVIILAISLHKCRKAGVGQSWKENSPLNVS

Trypsin = Trypsin (Homo sapiens, UniProt P07477+P07478+P35030); test: Inhibition of trypsin (unknown origin); assay type: protein assay
Coagulation factor X = Coagulation factor X (Homo sapiens, UniProt P00742); test: Inhibition of factor 10a (unknown origin)
Coagulation factor X, sequence (P00742 41-179 limits assumed): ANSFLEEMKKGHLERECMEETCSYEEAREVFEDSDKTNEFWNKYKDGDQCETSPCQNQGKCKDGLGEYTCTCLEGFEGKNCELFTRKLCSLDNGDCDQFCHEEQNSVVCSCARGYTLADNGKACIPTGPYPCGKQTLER
Coagulation factor X, sequence (P00742 235-488 limits assumed): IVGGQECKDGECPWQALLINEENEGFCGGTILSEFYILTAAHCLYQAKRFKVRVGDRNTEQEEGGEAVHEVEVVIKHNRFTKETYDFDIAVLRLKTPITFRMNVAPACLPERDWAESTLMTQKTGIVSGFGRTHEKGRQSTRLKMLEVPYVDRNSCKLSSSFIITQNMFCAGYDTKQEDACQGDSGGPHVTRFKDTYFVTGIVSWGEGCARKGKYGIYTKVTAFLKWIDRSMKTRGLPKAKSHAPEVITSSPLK

Prothrombin = Prothrombin (Homo sapiens, UniProt P00734); test: Inhibition of thrombin (unknown origin)
[2] = Dissociation constant, pKa of the compound; assay type: physicochemical
[3] = biological target: T1, Coagulation factor VII/tissue factor (Homo sapiens) (UniProt P08709+P13726); test: Competitive inhibition of human recombinant soluble tissue factor-factor 7a using tripeptide as substrate; assay type: protein-complex assay
[4] = biological target: T1, Coagulation factor VII/tissue factor (Homo sapiens); test: Noncompetitive inhibition of human recombinant soluble tissue factor-factor 7a using physiological substrate; assay type: protein-complex assay
[5] = Anticoagulant activity in plasma (unknown origin) assessed as concentration required to double prothrombin time; assay type: functional, unidentified
[6] = Volume of distribution at steady state in dog at 0.2 mg/kg, iv; assay type: ADME, organism-based, Canis lupus familiaris; parameters: dose 0.2 mg/kg, route intravenous; conditions: in vivo, read-out: Vdss
[7] = Half life in dog at 0.2 mg/kg, iv; assay type: ADME, organism-based, Canis lupus familiaris; parameters: dose 0.2 mg/kg, route intravenous; conditions: in vivo
[8] = Clearance in dog at 0.2 mg/kg, iv; assay type: ADME, organism-based, Canis lupus familiaris; parameters: dose 0.2 mg/kg, route intravenous; conditions: in vivo
[9] = Oral bioavailability in dog at 0.5 mg/kg; assay type: ADME, organism-based, Canis lupus familiaris; conditions: in vivo

| SMILES | Ki [1] | Ki (Trypsin) | Ki (Coagulation factor X) | Ki (Prothrombin) | further results |
| --- | --- | --- | --- | --- | --- |
| CCOc1cc(C(Nc2ccc3c(N)noc3c2)C(=O)NS(=O)(=O)c2ccccc2)ccc1OC(C)C (centres undefined) | 1.94 µM |  |  |  |  |
| CCOc1cc(C(Nc2ccc3c(N)nccc3c2)C(=O)NS(=O)(=O)c2ccc(C)cc2)ccc1OC(C)C (centres undefined) | 0.197 µM | 3.04 µM | 3.05 µM | 2.9 µM |  |
| CCOc1cc(C(Nc2ccc3cnccc3c2)C(=O)NS(=O)(=O)c2cccc(S(=O)(=O)N(C)C)c2)ccc1OC(C)C (centres undefined) | 0.78 µM | > 5 µM | 7.2 µM | > 13 µM |  |
| CCOc1cc([C@@H](Nc2ccc3cnccc3c2)C(=O)NS(=O)(=O)c2ccccc2)ccc1OC(C)C | 0.044 µM | > 5 µM | > 8 µM | > 13 µM | 2PT [5]: >80 µM; Vd [6]: 0.6 L/kg; half-life [7]: 0.9 h; clearance [8]: 9.3 mL/min/kg; bioavailability [9]: 36% |
| CCOc1cc(C(Nc2ccc3cnccc3c2)C(=O)NS(=O)(=O)c2ccccc2S(C)(=O)=O)ccc1OC(C)C (centres undefined) | 0.012 µM | > 5 µM | > 8 µM | 10.3 µM | 2PT [5]: 76 µM |
| CCOc1cc(C(Nc2ccc3cnccc3c2)C(=O)NS(=O)(=O)c2cccc(S(N)(=O)=O)c2)ccc1OC(C)C (centres undefined) | 0.032 µM | > 5 µM | > 8 µM | > 13 µM |  |
| CCOc1cc(C(Nc2ccc3cnccc3c2)C(=O)NS(=O)(=O)c2cccc(S(C)(=O)=O)c2)ccc1OC(C)C (centres undefined) | 0.145 µM | > 5 µM | > 8 µM | > 13 µM |  |
| CCOc1cc([C@@H](Nc2ccc3c(N)nccc3c2)C(=O)NS(=O)(=O)c2cccc(S(N)(=O)=O)c2)ccc1OC(C)C | 0.0028 µM | > 5 µM | 5.6 µM | 9.4 µM | 2PT [5]: 14 µM |
| CCOc1cc(C(Nc2ccc3cnccc3c2)C(=O)NS(=O)(=O)c2cccc(S(=O)(=O)NC)c2)ccc1OC(C)C (centres undefined) | 0.25 µM | > 5 µM | 7 µM | > 13 µM |  |
| CCOc1cc(C(Nc2ccc(C(=N)N)cc2)C(=O)NS(=O)(=O)c2ccccc2)ccc1OC(C)C (centres undefined) | 0.0013 µM |  |  |  | 2PT [5]: 4 µM; inhibition [3]: Active; inhibition [4]: Active |
| CCOc1cc([C@@H](Nc2ccc3cnccc3c2)C(=O)NS(=O)(=O)c2cccc(S(N)(=O)=O)c2)ccc1OC(C)C | 0.017 µM | > 5 µM | > 8 µM | > 13 µM |  |
| CCOc1cc(C(Nc2ccc3cnccc3c2)C(=O)NS(=O)(=O)c2ccccc2)ccc1OC(C)C (centres undefined) | 0.07 µM | > 5 µM | 5.4 µM | > 13 µM | pKa [2]: 7.8; inhibition [3]: Active; inhibition [4]: Active |
| CCOc1cc(C(Nc2ccc3c(N)n[nH]c3c2)C(=O)NS(=O)(=O)c2ccccc2)ccc1OC(C)C (centres undefined) | 2.9 µM |  |  |  |  |
| CCOc1cc(C(Nc2ccc3cnccc3c2)C(=O)NS(=O)(=O)c2ccc(S(C)(=O)=O)cc2)ccc1OC(C)C (centres undefined) | 8.1 µM | > 5 µM | > 8 µM | > 13 µM |  |
| CCOc1cc(C(Nc2ccc3nc(N)[nH]c3c2)C(=O)NS(=O)(=O)c2ccccc2)ccc1OC(C)C (centres undefined) | 0.67 µM |  |  |  |  |
| CCOc1cc(C(Nc2ccc3cnccc3c2)C(=O)NS(=O)(=O)c2ccccc2S(=O)(=O)CC)ccc1OC(C)C (centres undefined) | 0.006 µM | > 5 µM | > 8 µM | 9.4 µM |  |
| CCOc1cc(C(Nc2ccc3cnccc3c2)C(=O)NS(=O)(=O)c2ccccc2S(N)(=O)=O)ccc1OC(C)C (centres undefined) | 0.073 µM | > 5 µM | > 8 µM | > 13 µM |  |
| CCOc1cc(C(Nc2ccc3c(N)ncnc3c2)C(=O)NS(=O)(=O)c2ccccc2)ccc1OC(C)C (centres undefined) | 0.39 µM |  |  |  |  |
| CCOc1cc(C(Nc2ccc3cnccc3c2)C(=O)NS(=O)(=O)c2ccc(S(N)(=O)=O)cc2)ccc1OC(C)C (centres undefined) | 0.32 µM | > 5 µM | > 8 µM | > 13 µM |  |
| CCOc1cc(C(Nc2ccc3c(N)nccc3c2)C(=O)NS(=O)(=O)c2ccc(N)cc2)ccc1OC(C)C (centres undefined) | 0.009 µM | > 5 µM | 5.8 µM | 7.4 µM |  |

The next lines start with results.

| Ki [1] | Ki (Trypsin) | Ki (Coagulation factor X) | Ki (Prothrombin) | SMILES | further results |
| --- | --- | --- | --- | --- | --- |
|  | > 5 µM | 8.2 µM | > 13 µM | CCOc1cc([C@H](Nc2ccc3c(N)nccc3c2)C(=O)NS(=O)(=O)c2ccccc2)ccc1OC(C)C |  |
|  | 4.7 µM | 3.5 µM | 4.3 µM | CCOc1cc(C(Nc2ccc3c(N)nccc3c2)C(=O)NS(=O)(=O)c2ccccc2)ccc1OC(C)C (centres undefined) | pKa [2]: 8.9; inhibition [3]: Active; inhibition [4]: Active |
| 0.007 µM | > 5 µM | > 8 µM | > 13 µM | CCOc1cc(C(Nc2ccc3c(N)nccc3c2)C(=O)NS(=O)(=O)c2ccc(O)cc2)ccc1OC(C)C (centres undefined) |  |
| 0.026 µM | > 5 µM | 5.5 µM | 11 µM | CCOc1cc(C(Nc2ccc3c(N)nccc3c2)C(=O)NS(=O)(=O)c2cccc(O)c2)ccc1OC(C)C (centres undefined) |  |
| 0.018 µM | > 5 µM | > 8 µM | > 13 µM | CCOc1cc(C(Nc2ccc3c(N)nccc3c2)C(=O)NS(=O)(=O)c2cccc(C(N)=O)c2)ccc1OC(C)C (centres undefined) |  |
|  | > 5 µM | 7.3 µM | 6.9 µM | CCOc1cc([C@@H](Nc2ccc3c(N)nccc3c2)C(=O)NS(=O)(=O)c2ccccc2)ccc1OC(C)C | 2PT [5]: 36 µM; Vd [6]: 1.5 L/kg; half-life [7]: 1.5 h; clearance [8]: 24 mL/min/kg; bioavailability [9]: 4% |
| 0.01 µM | > 5 µM | 5.9 µM | > 13 µM | CCOc1cc(C(Nc2ccc3c(N)nccc3c2)C(=O)NS(=O)(=O)c2cccc(S(N)(=O)=O)c2)ccc1OC(C)C (centres undefined) |  |
| 0.048 µM | > 5 µM | > 8 µM | > 13 µM | CCOc1cc(C(Nc2ccc3c(N)nccc3c2)C(=O)NS(=O)(=O)c2cccc(N)c2)ccc1OC(C)C (centres undefined) |  |
| 0.028 µM | > 5 µM | > 8 µM | 11 µM | CCOc1cc(C(Nc2ccc3c(N)nccc3c2)C(=O)NS(=O)(=O)c2cccc(CO)c2)ccc1OC(C)C (centres undefined) |  |
